Reference: patent US20170304175A1, “COMPOSITION FOR INDUCING FACILITATION OF CELL REJUVENATION COMPRISING GENISTEIN OR EPIGALLOCATECHIN GALLATE” (AMOREPACIFIC CORPORATION, priority 2014, published 2017)

System: melanocytes
Assay: Observation of phenotype of melanocytes with an optical microscope
Assay type: cell-based, Human
Details: long-term exposure (1 μM in medium from passage 7 to passage 11/12), FIGS. 4A-4B
Protocol: Human primary melanocytes (Life Technologies, CA, USA) were cultured in a M-254 medium (Gibco BRL, NY, USA) supplemented with a human melanocyte growth supplement (HMGS; Gibco BRL, NY, USA) in a 5% CO2 incubator at […] on a 100-mm culture plate while replacing the medium every other day until the cells occupy 80% of the plate area and then subcultured on another 100-mm culture plate at a ratio of 1:4.
The melanocytes first placed on the 100-mm culture plate were considered as passage 1 (PA1) and subculturing was performed 11 times (PA12).
As a control group, melanocytes were subcultured to passage 11 and passage 12 without any treatment, and as a test group, the cells were subcultured under the same environment as the control group until passage 6, and then subcultured from passage 7 to passage 11 and passage 12 in a medium containing 1 μM genistein or epigallocatechin gallate (EGCG).

SMILES | phenotype of melanocytes of the late cell line
O=C(O[C@@H]1Cc2c(O)cc(O)cc2O[C@@H]1c1cc(O)c(O)c(O)c1)c1cc(O)c(O)c(O)c1 [epigallocatechin gallate (EGCG), epigallocatechin gallate] | recovered similarly to the cells of the early stage of subculturing
O=c1c(-c2ccc(O)cc2)coc2cc(O)cc(O)c12 [genistein] | recovered similarly to the cells of the early stage of subculturing
